Experimental data from ChEMBL document CHEMBL5465560, “Selectivity Literature for EUbOPEN Chemogenomic Library” (2024).
One block for each compound: values may come before it.

What was measured:
[1] = target: T1, Ephrin type-B receptor 3 (Homo sapiens) (UniProt P54753); experiment: Selectivity interaction (Kinase panel (Invitrogen)) EUB0000639a EPHB3; details: at 200 nM
T1 sequence (whole entry): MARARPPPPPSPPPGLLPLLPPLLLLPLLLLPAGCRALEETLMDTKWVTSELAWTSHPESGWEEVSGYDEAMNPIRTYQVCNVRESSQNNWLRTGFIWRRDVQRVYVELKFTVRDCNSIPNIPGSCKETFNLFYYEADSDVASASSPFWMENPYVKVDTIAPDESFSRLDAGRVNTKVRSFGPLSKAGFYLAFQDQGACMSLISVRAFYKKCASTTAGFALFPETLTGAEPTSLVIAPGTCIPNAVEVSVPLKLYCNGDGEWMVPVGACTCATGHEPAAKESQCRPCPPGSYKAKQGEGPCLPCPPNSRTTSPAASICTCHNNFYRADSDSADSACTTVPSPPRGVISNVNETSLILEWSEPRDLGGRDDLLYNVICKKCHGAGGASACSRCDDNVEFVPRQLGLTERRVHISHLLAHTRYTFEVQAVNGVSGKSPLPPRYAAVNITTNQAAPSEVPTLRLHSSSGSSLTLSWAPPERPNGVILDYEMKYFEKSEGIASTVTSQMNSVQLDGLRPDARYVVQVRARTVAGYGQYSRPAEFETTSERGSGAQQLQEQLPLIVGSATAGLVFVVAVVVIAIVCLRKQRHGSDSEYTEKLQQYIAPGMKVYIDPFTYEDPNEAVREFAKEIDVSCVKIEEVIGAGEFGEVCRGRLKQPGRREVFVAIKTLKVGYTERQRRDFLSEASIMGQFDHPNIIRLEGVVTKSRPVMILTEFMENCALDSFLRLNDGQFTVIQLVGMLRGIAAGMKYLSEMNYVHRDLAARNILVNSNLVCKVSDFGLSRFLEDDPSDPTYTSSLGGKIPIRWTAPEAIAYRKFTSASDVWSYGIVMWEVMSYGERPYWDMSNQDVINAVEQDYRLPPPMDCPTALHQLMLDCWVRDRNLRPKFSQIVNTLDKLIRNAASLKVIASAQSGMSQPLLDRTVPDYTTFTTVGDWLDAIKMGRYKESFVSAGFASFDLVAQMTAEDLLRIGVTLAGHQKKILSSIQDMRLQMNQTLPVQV

[2] = target: PAS domain-containing serine/threonine-protein kinase (Homo sapiens) (UniProt Q96RG2); experiment: Selectivity interaction (Kinase panel (Invitrogen)) EUB0000639a PASK; details: at 200 nM
[3] = target: Wee1-like protein kinase (Homo sapiens) (UniProt P30291); experiment: Selectivity interaction (ActivX KiNativ screen (kinase selectivity in THP-1 cell lysates)) EUB0000639a WEE1; type: subcellular; details: lysate
[4] = target: T2, Myosin-IIIb (Homo sapiens) (UniProt Q8WXR4); details: at 10 µM
T2 sequence (whole entry): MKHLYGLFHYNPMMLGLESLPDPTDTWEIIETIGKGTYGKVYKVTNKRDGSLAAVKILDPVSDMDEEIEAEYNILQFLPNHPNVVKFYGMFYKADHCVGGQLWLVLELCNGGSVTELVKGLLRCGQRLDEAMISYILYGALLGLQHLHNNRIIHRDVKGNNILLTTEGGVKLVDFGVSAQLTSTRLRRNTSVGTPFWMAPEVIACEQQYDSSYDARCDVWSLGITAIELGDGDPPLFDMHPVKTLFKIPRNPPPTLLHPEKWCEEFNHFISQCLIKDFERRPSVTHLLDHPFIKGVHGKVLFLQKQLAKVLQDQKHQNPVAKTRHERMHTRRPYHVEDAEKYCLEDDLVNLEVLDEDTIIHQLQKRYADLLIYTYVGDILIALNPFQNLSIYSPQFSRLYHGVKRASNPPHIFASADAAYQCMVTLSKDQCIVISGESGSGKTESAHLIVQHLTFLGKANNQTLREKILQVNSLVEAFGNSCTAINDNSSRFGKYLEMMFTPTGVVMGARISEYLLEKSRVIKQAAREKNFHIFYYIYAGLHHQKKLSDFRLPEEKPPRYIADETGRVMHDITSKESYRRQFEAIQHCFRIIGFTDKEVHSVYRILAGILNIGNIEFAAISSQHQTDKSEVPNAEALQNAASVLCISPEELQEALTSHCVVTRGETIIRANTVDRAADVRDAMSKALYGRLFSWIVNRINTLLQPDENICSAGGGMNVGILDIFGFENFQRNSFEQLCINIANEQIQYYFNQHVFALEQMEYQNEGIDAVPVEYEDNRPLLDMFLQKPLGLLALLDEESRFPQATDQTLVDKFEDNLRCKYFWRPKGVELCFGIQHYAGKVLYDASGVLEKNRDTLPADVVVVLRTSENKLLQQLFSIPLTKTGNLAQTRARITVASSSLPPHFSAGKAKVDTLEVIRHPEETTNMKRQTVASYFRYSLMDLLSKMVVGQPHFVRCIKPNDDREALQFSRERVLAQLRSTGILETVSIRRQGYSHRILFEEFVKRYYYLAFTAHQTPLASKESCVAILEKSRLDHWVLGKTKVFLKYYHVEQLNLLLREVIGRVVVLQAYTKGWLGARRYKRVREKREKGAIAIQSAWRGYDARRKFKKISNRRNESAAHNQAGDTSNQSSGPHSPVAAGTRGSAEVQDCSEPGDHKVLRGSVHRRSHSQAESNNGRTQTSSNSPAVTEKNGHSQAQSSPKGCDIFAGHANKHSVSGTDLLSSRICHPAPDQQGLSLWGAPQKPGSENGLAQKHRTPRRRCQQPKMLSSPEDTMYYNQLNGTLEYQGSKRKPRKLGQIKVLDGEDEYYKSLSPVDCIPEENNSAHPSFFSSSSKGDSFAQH

[5] = target: Serine/threonine-protein kinase MARK1 (Homo sapiens) (UniProt Q9P0L2); experiment: Selectivity interaction (KinomeScan (DiscoverX)) EUB0000229b MARK1; details: at 10 µM
[6] = target: CDK9/Cyclin K (Homo sapiens) (UniProt P50750+O75909); experiment: (§1) Selectivity interaction (ProQinase) EUB0000171b CDK9; type: protein-complex assay
[7] = target: CDK9/cyclin T1 (Homo sapiens) (UniProt O60563+P50750); experiment: as §1; type: protein-complex assay

Chain of Wee1-like protein kinase (Homo sapiens) (P30291 whole entry, looked up): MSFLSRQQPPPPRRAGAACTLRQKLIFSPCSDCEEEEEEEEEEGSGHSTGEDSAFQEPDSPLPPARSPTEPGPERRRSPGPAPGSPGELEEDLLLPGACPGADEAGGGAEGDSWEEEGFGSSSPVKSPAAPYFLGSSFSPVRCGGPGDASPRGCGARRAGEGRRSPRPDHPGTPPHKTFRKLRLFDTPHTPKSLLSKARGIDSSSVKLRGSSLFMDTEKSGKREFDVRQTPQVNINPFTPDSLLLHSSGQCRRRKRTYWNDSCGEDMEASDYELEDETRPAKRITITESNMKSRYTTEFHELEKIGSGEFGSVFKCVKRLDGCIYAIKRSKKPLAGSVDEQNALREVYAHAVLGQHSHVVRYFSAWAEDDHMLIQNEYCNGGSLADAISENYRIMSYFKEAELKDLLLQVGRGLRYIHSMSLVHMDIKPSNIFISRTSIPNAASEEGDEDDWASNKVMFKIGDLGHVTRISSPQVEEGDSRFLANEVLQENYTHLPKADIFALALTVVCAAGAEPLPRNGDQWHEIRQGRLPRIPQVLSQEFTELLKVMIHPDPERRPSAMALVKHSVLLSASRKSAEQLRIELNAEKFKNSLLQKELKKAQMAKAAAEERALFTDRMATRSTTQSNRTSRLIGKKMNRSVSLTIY
Chain of PAS domain-containing serine/threonine-protein kinase (Homo sapiens) (Q96RG2 whole entry, the tested form may be a part): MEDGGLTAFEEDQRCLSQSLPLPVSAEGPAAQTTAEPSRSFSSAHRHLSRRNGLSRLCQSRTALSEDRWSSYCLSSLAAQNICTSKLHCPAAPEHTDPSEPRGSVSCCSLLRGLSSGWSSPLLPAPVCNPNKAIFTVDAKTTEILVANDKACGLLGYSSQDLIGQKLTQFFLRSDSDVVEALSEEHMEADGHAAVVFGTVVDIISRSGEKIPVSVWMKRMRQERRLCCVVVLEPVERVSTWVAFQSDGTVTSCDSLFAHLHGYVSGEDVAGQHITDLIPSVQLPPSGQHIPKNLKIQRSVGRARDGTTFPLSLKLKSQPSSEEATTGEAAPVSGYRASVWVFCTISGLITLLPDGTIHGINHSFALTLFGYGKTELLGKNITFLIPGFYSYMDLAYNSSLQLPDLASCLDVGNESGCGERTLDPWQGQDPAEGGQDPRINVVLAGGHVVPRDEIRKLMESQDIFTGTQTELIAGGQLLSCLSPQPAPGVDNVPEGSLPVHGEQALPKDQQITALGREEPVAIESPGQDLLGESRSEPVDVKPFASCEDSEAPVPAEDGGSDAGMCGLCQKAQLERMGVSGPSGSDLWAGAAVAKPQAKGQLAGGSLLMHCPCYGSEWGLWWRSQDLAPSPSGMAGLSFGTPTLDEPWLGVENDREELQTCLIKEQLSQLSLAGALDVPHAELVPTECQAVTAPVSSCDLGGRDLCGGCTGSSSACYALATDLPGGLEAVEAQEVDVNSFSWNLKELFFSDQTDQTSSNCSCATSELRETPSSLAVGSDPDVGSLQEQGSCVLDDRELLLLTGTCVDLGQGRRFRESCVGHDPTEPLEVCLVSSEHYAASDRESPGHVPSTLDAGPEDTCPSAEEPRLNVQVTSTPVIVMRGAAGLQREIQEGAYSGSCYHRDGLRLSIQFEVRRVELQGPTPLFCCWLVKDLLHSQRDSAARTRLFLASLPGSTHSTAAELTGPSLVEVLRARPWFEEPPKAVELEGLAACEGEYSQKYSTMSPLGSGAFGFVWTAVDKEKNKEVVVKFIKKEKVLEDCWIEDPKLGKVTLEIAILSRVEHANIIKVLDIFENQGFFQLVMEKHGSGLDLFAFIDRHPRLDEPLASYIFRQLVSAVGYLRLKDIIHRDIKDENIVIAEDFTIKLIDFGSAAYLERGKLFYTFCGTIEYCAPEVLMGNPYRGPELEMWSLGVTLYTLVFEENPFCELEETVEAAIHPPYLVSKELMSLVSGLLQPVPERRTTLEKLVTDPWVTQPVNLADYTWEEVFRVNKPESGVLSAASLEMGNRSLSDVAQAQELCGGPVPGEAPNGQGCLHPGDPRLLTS
Chain of Serine/threonine-protein kinase MARK1 (Homo sapiens) (Q9P0L2 whole entry, looked up): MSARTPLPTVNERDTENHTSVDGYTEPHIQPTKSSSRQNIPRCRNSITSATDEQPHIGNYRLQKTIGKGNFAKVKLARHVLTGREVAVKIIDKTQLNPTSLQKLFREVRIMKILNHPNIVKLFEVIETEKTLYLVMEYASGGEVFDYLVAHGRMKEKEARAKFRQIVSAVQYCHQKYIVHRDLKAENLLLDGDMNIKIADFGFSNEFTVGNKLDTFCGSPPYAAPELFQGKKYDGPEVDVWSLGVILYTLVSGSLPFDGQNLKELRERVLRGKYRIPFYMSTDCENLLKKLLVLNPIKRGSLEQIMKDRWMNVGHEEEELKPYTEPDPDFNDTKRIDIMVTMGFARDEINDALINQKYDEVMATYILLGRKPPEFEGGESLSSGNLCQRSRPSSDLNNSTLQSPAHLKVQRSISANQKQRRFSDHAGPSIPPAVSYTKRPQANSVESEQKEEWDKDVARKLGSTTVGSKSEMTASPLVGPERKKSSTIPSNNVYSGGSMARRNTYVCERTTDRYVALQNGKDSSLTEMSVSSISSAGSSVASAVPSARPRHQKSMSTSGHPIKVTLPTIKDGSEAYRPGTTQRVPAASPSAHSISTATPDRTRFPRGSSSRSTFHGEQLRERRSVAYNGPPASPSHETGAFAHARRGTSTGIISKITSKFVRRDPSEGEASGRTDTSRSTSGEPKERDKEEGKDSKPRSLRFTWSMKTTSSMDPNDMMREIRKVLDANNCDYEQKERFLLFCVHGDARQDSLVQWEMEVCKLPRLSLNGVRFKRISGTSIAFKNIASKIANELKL

- % of inhibition [1]: 4.83%
- % of inhibition [2]: 7.59%
- % of inhibition ([3]; at 0.01 µM): 25.6%
- % of inhibition ([3]; at 0.04 µM): -1.5%
- % of inhibition ([3]; at 0.2 µM): 3.2%
- % of inhibition ([3]; at 1 µM): -5.7%
- % of inhibition ([3]; at 5 µM): 35.6%
SMILES: CC[C@@H]1[C@H](F)C(=O)N[C@@H]1COc1nccc2cc(C(N)=O)c(OC)cc12 [ZIMLOVISERTIB]

- % of control [4]: 100%
SMILES: CCN(CC)CCCCNc1ncc2cc(-c3cc(OC)cc(OC)c3)c(NC(=O)NC(C)(C)C)nc2n1

SMILES: COc1cc(N(C)c2ccnc3ccc(C(F)(F)F)cc23)cc(OC)c1OC
- % binding [5]: 98%

- % of control ([6]; at 1 µM): 85%
- % of control ([6]; at 5 µM): 39%
- % of control ([7]; at 1 µM): 63%
- % of control ([7]; at 5 µM): 38%
SMILES: C=CC(=O)Nc1cccc(C(=O)Nc2ccc(Nc3cc(-c4[nH]c(SC)nc4C)ccn3)cc2)c1
